Experimental data reported in patent US12077503B2, “Substituted cyclic amides and their use as herbicides” (FMC CORPORATION, priority 2015, dated 2024).
Where two headings read alike, the source gives them in different places.

How the values were obtained:
Assay type in all cases: in vivo
[1] = test system: ryegrass, Italian (Italian ryegrass, Lolium multiflorum); test: Test A preemergence; details: Lolium multiflorum, pre-emergence, 240 h, preemergence, 0 to 100 scale where 0 is no effect and 100 is complete control, read-out: Ryegrass, Italian plant response rating; for pest or weed control at 125 g/ha: 125 g ai/ha, visual injury rating, approximately 10 d; for pest or weed control at 500 g/ha: 500 g ai/ha
Method in brief: (§1)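 Treatment is preemergence as a directed soil spray after planting, or postemergence at the one- to two-leaf stage, with test chemical in a non-phytotoxic solvent mixture plus surfactant. Plants stay in the greenhouse about 10 d before visual injury scoring on a 0 to 100 scale versus untreated controls.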

[2] = test system: pigweed (Amaranthus retroflexus); test: Test A preemergence; details: Amaranthus retroflexus, pre-emergence, 240 h, preemergence, 0 to 100 scale where 0 is no effect and 100 is complete control, read-out: Pigweed plant response rating; for pest or weed control at 125 g/ha: 125 g ai/ha, visual injury rating, approximately 10 d; for pest or weed control at 500 g/ha: 500 g ai/ha
Kochia (Kochia scoparia) = test: Test A preemergence; details: Bassia scoparia, pre-emergence, 240 h, preemergence, 0 to 100 scale where 0 is no effect and 100 is complete control, read-out: Kochia plant response rating; for pest or weed control at 125 g/ha: 125 g ai/ha, visual injury rating, approximately 10 d; for pest or weed control at 500 g/ha: 500 g ai/ha
Method in brief: as §1

[3] = test system: ragweed (common ragweed, Ambrosia elatior); test: Test A preemergence; details: Ambrosia artemisiifolia, pre-emergence, 240 h, preemergence, 0 to 100 scale where 0 is no effect and 100 is complete control, read-out: Ragweed plant response rating; for pest or weed control at 125 g/ha: 125 g ai/ha, visual injury rating, approximately 10 d; for pest or weed control at 500 g/ha: 500 g ai/ha
Method in brief: as §1

[4] = test system: barnyardgrass (Echinochloa crus-galli); test: Test A preemergence; details: Echinochloa crus-galli, pre-emergence, 240 h, preemergence, 0 to 100 scale where 0 is no effect and 100 is complete control, read-out: Barnyardgrass plant response rating; for pest or weed control at 125 g/ha: 125 g ai/ha, visual injury rating, approximately 10 d; for pest or weed control at 500 g/ha: 500 g ai/ha
Method in brief: as §1

[5] = test system: giant foxtail (Setaria faberii); test: Test A preemergence; details: Setaria faberi, pre-emergence, 240 h, preemergence, 0 to 100 scale where 0 is no effect and 100 is complete control, read-out: Foxtail, Giant plant response rating; for pest or weed control at 125 g/ha: 125 g ai/ha, visual injury rating, approximately 10 d; for pest or weed control at 500 g/ha: 500 g ai/ha
Method in brief: as §1

[6] = test system: ryegrass, Italian (Italian ryegrass, Lolium multiflorum); test: Test A postemergence; details: Lolium multiflorum, post-emergence, 240 h; for pest or weed control at 125 g/ha: 125 g ai/ha, read-out: Ryegrass, Italian plant response rating (0 to 100 scale); for pest or weed control at 500 g/ha: 500 g ai/ha
Method in brief: as §1

[7] = test system: pigweed (Amaranthus retroflexus); test: Test A postemergence; details: Amaranthus retroflexus, post-emergence, 240 h; for pest or weed control at 125 g/ha: 125 g ai/ha, read-out: Pigweed plant response rating (0 to 100 scale); for pest or weed control at 500 g/ha: 500 g ai/ha
Method in brief: as §1

[8] = test system: blackgrass (Alopecurus myosuroides); test: Test A postemergence; details: Alopecurus myosuroides, post-emergence, 240 h; for pest or weed control at 125 g/ha: 125 g ai/ha, read-out: Blackgrass plant response rating (0 to 100 scale); for pest or weed control at 500 g/ha: 500 g ai/ha
Method in brief: as §1

[9] = test system: wheat (Triticum aestivum); test: Test A postemergence; details: Triticum aestivum, post-emergence, 240 h; for plant injury at 125 g/ha: 125 g ai/ha, read-out: Wheat plant response rating (0 to 100 scale); for plant injury at 500 g/ha: 500 g ai/ha
Method in brief: as §1

[10] = test system: giant foxtail (Setaria faberii); test: Test A postemergence; details: Setaria faberi, post-emergence, 240 h; for pest or weed control at 125 g/ha: 125 g ai/ha, read-out: Foxtail, Giant plant response rating (0 to 100 scale); for pest or weed control at 500 g/ha: 500 g ai/ha
Method in brief: as §1

rice (Oryra sativa) = test: Test B flooded paddy test; details: Oryza sativa, 250 g ai/ha, Flood; 0 to 100 scale where 0 is no effect and 100 is complete control; read-out: Rice plant response rating
Method in brief: (§2)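 Response scored visually against untreated controls, 0 = no effect and 100 = complete control, 13–15 d after treatment in the greenhouse. Compounds added to paddy water held 3 cm above soil surface. Treatment given at 2-leaf stage.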

[11] = test system: ducksalad (Heteranthera limosa); test: Test B flooded paddy test; details: Heteranthera limosa, 250 g ai/ha, Flood; 0 to 100 scale where 0 is no effect and 100 is complete control; read-out: Ducksalad plant response rating
Method in brief: as §2

[12] = test system: barnyardgrass (Echinochloa crus-galli); test: Test B flooded paddy test; details: Echinochloa crus-galli, 250 g ai/ha, Flood; 0 to 100 scale where 0 is no effect and 100 is complete control; read-out: Barnyardgrass plant response rating
Method in brief: as §2

[13] = test system: sedge, umbrella (small-flower umbrella sedge, Cyperus difformis); test: Test B flooded paddy test; details: Cyperus difformis, 250 g ai/ha, Flood; 0 to 100 scale where 0 is no effect and 100 is complete control; read-out: Sedge, Umbrella plant response rating
Method in brief: as §2

[14] = Postemergence, visual rating about 10 d after treatment
[15] = postemergence, visual injury vs untreated controls after approx. 10 d, 0 = no effect, 100 = complete control

| SMILES | pest or weed control at 125 g/ha [1] | pest or weed control at 500 g/ha [1] | pest or weed control at 125 g/ha [2] | pest or weed control at 500 g/ha [2] | pest or weed control at 125 g/ha (Kochia (Kochia scoparia)) | pest or weed control at 500 g/ha (Kochia (Kochia scoparia)) | pest or weed control at 125 g/ha [3] | pest or weed control at 500 g/ha [3] | pest or weed control at 125 g/ha [4] | pest or weed control at 500 g/ha [4] | pest or weed control at 125 g/ha [5] | pest or weed control at 500 g/ha [5] | pest or weed control at 250 g/ha (rice (Oryra sativa)) | pest or weed control at 250 g/ha [11] | pest or weed control at 250 g/ha [12] | pest or weed control at 250 g/ha [13] | further results |
| --- | --- | --- | --- | --- | --- | --- | --- | --- | --- | --- | --- | --- | --- | --- | --- | --- | --- |
| CSc1ccccc1NC(=O)[C@H]1C(=O)NC[C@@H]1c1cc(C)cc(F)c1 [Compound 1306] | 0% | 0% | 0% | 0% | 0% | 70% | 40% | 60% | 60% | 90% | 30% | 90% | 0% | 100% | 20% | 0% | pest or weed control at 125 g/ha [6, 14]: 0%; pest or weed control at 500 g/ha ([6]; Postemergence, visual injury, 0 to 100 scale (0 no effect, 100 complete control), approx. 10 d, read-out: Plant response rating, Ryegrass, Italian): 0%; pest or weed control at 125 g/ha [7, 14]: 0%; pest or weed control at 500 g/ha ([7]; Postemergence, visual injury, 0 to 100 scale (0 no effect, 100 complete control), approx. 10 d, read-out: Plant response rating, Pigweed): 0%; pest or weed control at 125 g/ha [8, 14]: 0%; pest or weed control at 500 g/ha ([8]; Postemergence, visual injury, 0 to 100 scale (0 no effect, 100 complete control), approx. 10 d, read-out: Plant response rating, Blackgrass): 0%; plant injury at 125 g/ha [9, 14]: 0%; plant injury at 500 g/ha ([9]; Postemergence, visual injury, 0 to 100 scale (0 no effect, 100 complete control), approx. 10 d, read-out: Plant response rating, Wheat): 0%; pest or weed control at 125 g/ha [10, 14]: 0%; pest or weed control at 500 g/ha ([10]; Postemergence, visual injury, 0 to 100 scale (0 no effect, 100 complete control), approx. 10 d, read-out: Plant response rating, Foxtail, Giant): 20% |
| CSc1ccccc1NC(=O)[C@H]1C(=O)N(C)C[C@@H]1c1ccc(C#N)cc1 [Compound 1230] | 0% | 0% | 20% | 30% | 70% | 90% | 0% | 0% | 0% | 50% | 40% | 90% | 0% | 70% | 25% | 0% | pest or weed control at 125 g/ha [6, 15]: 0%; pest or weed control at 500 g/ha ([6]; postemergence, 0 to 100 scale, 0 is no effect, 100 is complete control, read-out: Ryegrass, Italian plant response rating): 0%; pest or weed control at 125 g/ha [7, 15]: 30%; pest or weed control at 500 g/ha ([7]; postemergence, 0 to 100 scale, 0 is no effect, 100 is complete control, read-out: Pigweed plant response rating): 60%; pest or weed control at 125 g/ha [8, 15]: 0%; pest or weed control at 500 g/ha ([8]; postemergence, 0 to 100 scale, 0 is no effect, 100 is complete control, read-out: Blackgrass plant response rating): 0%; plant injury at 125 g/ha [9, 15]: 0%; plant injury at 500 g/ha ([9]; postemergence, 0 to 100 scale, 0 is no effect, 100 is complete control, read-out: Wheat plant response rating): 0%; pest or weed control at 125 g/ha [10, 15]: 60%; pest or weed control at 500 g/ha ([10]; postemergence, 0 to 100 scale, 0 is no effect, 100 is complete control, read-out: Foxtail, Giant plant response rating): 80% |
